Source: patent US10105437B2, “Epitopes related to coeliac disease” (BTG International Limited, priority 2004, dated 2018)

Tests used:
Format in all cases: cell-based, human
[1] = tested on: PBMC from subjects with DQ2+ coeliac disease; assay: Interferon gamma ELISPOT, high grade avenin peptides after oats challenge; settings: for subjects in whom peptide was dominant (>70% maximal response) after oats challenge: day 6 PBMC
Description: (§1) IFNγ ELISpot assays (Mabtech, Sweden) were performed in 96-well plates (MAIP S-45, Millipore) in which each well contained 25 mcl of peptide solution and 100 mcl of PBMC (2-8×10^5/well) in RPMI containing 10% heat inactivated human AB serum. After development and drying, IFNγ ELISpot plates were assessed using the MAIP automated ELISpot plate counter. Data was then analysed according to a novel algorithm (Expectation Maximization: EM) to define and quantify interferon-gamma responses to 9mer sequences contained within the peptide library (see FIG. 3 and below). 9mer peptides were then rationalised according to an algorithm that assumes redundancy in T-cell recognition, the “IterativeCluster” algorithm (see FIG. 4 and below), by allowing groups of amino acids with similar chemical properties at any one position in the 9mer, or for glutamate to replace glutamine at any position (assuming deamidation may have occurred).
High grade avenin peptides were assessed 3 days after completing oats challenge with pure wheat-free oats, 100 g/d for 3 days (“day 6” PBMC interferon gamma ELISPOT responses). These peptides were designed upon peptides previously defined using the screening grade (“first round”) avenin peptide library and on potential deamidation sites. There were 25 peptides (as 16mers) with purity verified by HPLC as >80%, and sequences confirmed by mass spectroscopy.
Interferon gamma ELISPOT responses to the high grade avenin peptides following deamidation by tTG were compared in 18 subjects with DQ2+ coeliac disease.

[2] = tested on: PBMC from HLA DQ2 coeliac disease subjects; assay: Interferon gamma ELISPOT, combitope comparison after wheat, rye or barley challenge; settings: for median ELISPOT response as percent of response to Combitope: after wheat challenge, n=16 subjects
Text: The issue of epitope redundancy and the potential utility in diagnostics and therapeutics of peptides designed to combine “unique” dominant epitopes was addressed by comparing interferon gamma ELISPOT responses after wheat (n=16 HLA DQ2 coeliac disease subjects), rye (n=17) or barley (n=13) challenge to the sequences: QLQPFPQPELPYPQPQL (SEQ ID NO: 1903) (“P04724E”), QPEQPFPQPEQPFPWQP (SEQ ID NO: 1904) (“626fEE”), and […] (SEQ ID NO: 1905) (“Combitope”). After rye and barley challenge the sum of the median ELISPOT responses (spot forming units) to P04724E and 626fEE were almost identical (99%, and 102%, respectively) to the response to a similar (optimal) concentration of the Combitope. However, after wheat challenge (n=16 subjects), median P04724E response was 89% of that to Combitope, and median 626fEE responses was 70% of the response to Combitope.

[3] = tested on: PBMC from HLA DQ8+DQ2- CD subjects; assay: Interferon gamma ELISPOT, glutenin 20mer library in HLA DQ8 subjects; settings: tTG-pretreated glutenin 20mers sharing the motif or sequence
Text: PBMC from two subjects initially challenged were used to screen the first round “Melbourne” wheat gliadin 20mer library. The 20mer sequences identified using PBMC from these two HLA DQ8 CD subjects were dissected further by screening, in five HLA DQ8+DQ2− CD subjects including the two original subjects, a second round library based on reactive 20mers in the 1st round library. The 2nd round library consisted of screening grade overlapping 16mers, and 13mers predicted to correspond to tTG-mediated deamidation products of epitopes with the potential for deamidation of glutamine at position 1 and/or position 9 (consistent with the HLA DQ8 peptide binding motif). In addition, the 1400 glutenin (HMW and LMW) tTG-pretreated 20mers in the “Melbourne” wheat gluten library were also screened in these five subjects.
Dominant 20mer peptides shared the motifs or had the sequences: PQQQQQQLVQQQ (SEQ ID NO: 1917), QGIFLQPH(LQ)I(AS)QLEV (SEQ ID NO: 1918), QPGQGQQG(HY)Y (SEQ ID NO: 1919), QSRYEAIRAII(FY)S (SEQ ID NO: 1920), RTTTSVPFD (SEQ ID NO: 1921), QPPFWRQQP (SEQ ID NO: 1922), Q(PS)(PS)(FI)(PS) QQQQ (SEQ ID NO: 1923), (QPLR)GYYPTSPQ (SEQ ID NO: 1924) (previously identified HLA DQ8 epitope, van der Wal 2001), QGSYYPGQASPQ (SEQ ID NO: 1925), […] (SEQ ID NO: 1926), and […] (SEQ ID NO: 1927). Glutenin peptides were assessed after pre-treatment with transglutaminase.

[4] = tested on: PBMC from HLA-DQ2+ coeliac subjects; assay: Interferon gamma ELISPOT, third round wheat peptide library; settings: following deamidation by tTG; 14 subjects; wheat challenge
Description: as §1
The third round peptide library consisted of 74 peptides based upon structurally distinct sequences in the second round library found to induce at least 10% of the maximal response to any peptide in any subject. These peptides corresponded to wild-type (non-deamidated) sequences virtually identical to those used in the second round library. The distinct feature of this library was that it consisted of peptides with purity verified by HPLC as >80%, and with sequences confirmed by mass spectroscopy.
Interferon gamma ELSIPOT responses to the 3rd round library peptides following deamidation by tTG were compared in 14 subjects. Once again, sequences including the PQPQLPY motif (SEQ ID NO: 1937) were “dominant” in 9/14 subjects. However PFPQPQQPFPW (SEQ ID NO: 1894) stimulated >70% of maximal response in 1/14 subjects, PFPQQPQQPFPQ (SEQ ID NO: 1895) in 1/14, PQPFLPQLPYPQP (SEQ ID NO: 1896) in 1/14, QPFPQPQQPQQP (SEQ ID NO: 1897) in 4/14 (including 3 subjects in whom PQPQLPY peptides (SEQ ID NO: 1937) were not potent epitopes) SGQGVSQSQQQSQQQ (SEQ ID NO: 1898) in 2/14 (including one in which PQPQLPY peptides (SEQ ID NO: 1937) were not potent), QYEVIRSLVLRTLPNM (SEQ ID NO: 1899) and GLARSQMLQQSICHVG (SEQ ID NO: 1900) each in one (the same) subject in whom PQPQLPY peptides (SEQ ID NO: 1937) were not potent epitopes, RTTTSVPFGVGTGVGA (SEQ ID NO: 1901) in 1/14 subjects and AIHTVIHSIIMQQEQQ (SEQ ID NO: 1902) in 1/14 subjects.

[5] = after oats challenge, deamidated by tTG, 18 subjects

EQYQPEQQPFMQPL (Description of Artificial Sequence: Synthetic gluten peptide)
subjects with >40% maximal peptide response [1, 5]: 5/18

QPEQPFPQPEQPFPWQP (Description of Artificial Sequence: Synthetic gluten peptide) [Peptide 626fEE]
sum of the median ELISPOT responses to P04724E and 626fEE relative to response to Combitope ([2]; after barley challenge, n=13): 102%
sum of the median ELISPOT responses to P04724E and 626fEE relative to response to Combitope ([2]; after rye challenge, n=17): 99%
median ELISPOT response as percent of response to Combitope [2]: 70%

QLQPFPQPELPYPQPQL (Description of Artificial Sequence: Synthetic gluten peptide) [Peptide P04724E]
sum of the median ELISPOT responses to P04724E and 626fEE relative to response to Combitope ([2]; after barley challenge, n=13): 102%
sum of the median ELISPOT responses to P04724E and 626fEE relative to response to Combitope ([2]; after rye challenge, n=17): 99%
median ELISPOT response as percent of response to Combitope [2]: 89%

QGSYYPGQASPQ (Description of Artificial Sequence: Synthetic gluten peptide) [motif of dominant glutenin 20mers, HLA DQ8]
dominance among five subjects [3]: dominant in at least one of the five subjects

RTTTSVPFGVGTGVGA (Description of Artificial Sequence: Synthetic gluten peptide)
subjects in whom peptide stimulated >70% of maximal response (dominant) [4]: 1/14

QYEVIRSLVLRTLPNM (Description of Artificial Sequence: Synthetic gluten peptide)
subjects in whom peptide stimulated >70% of maximal response (dominant) [4]: one

GLARSQMLQQSICHVG (Description of Artificial Sequence: Synthetic gluten peptide)
subjects in whom peptide stimulated >70% of maximal response (dominant) [4]: one

QGQQLAQGQQGQQPAQVQQG (Description of Artificial Sequence: Synthetic gluten peptide) [glutenin 20mer, HLA DQ8]
dominance among five subjects [3]: dominant in at least one of the five subjects

PFPQPQQPFPW (Description of Artificial Sequence: Synthetic gluten peptide)
subjects in whom peptide stimulated >70% of maximal response (dominant) [4]: 1/14

EQQFGQNIFSGFSVQL (Description of Artificial Sequence: Synthetic gluten peptide)
subjects in whom peptide was dominant (>70% maximal response) after oats challenge ([1]; deamidated by tTG, 18 subjects): 11/18

QYQPYPEQEQPILQQQ (Description of Artificial Sequence: Synthetic gluten peptide)
subjects in whom peptide was dominant (>70% maximal response) after oats challenge ([1]; deamidated by tTG, 18 subjects): 3/18

QPFPQPQQPQQP (Description of Artificial Sequence: Synthetic gluten peptide)
subjects in whom peptide stimulated >70% of maximal response (dominant) [4]: 4/14

PFPQQPQQPFPQ (Description of Artificial Sequence: Synthetic gluten peptide)
subjects in whom peptide stimulated >70% of maximal response (dominant) [4]: 1/14

PQQQQQQLVQQQ (Description of Artificial Sequence: Synthetic gluten peptide) [motif of dominant glutenin 20mers, HLA DQ8]
dominance among five subjects [3]: dominant in at least one of the five subjects

QIPEQLRCPAIHSVVQ (Description of Artificial Sequence: Synthetic gluten peptide)
subjects with positive responses [1, 5]: 3/18

AIHTVIHSIIMQQEQQ (Description of Artificial Sequence: Synthetic gluten peptide)
subjects in whom peptide stimulated >70% of maximal response (dominant) [4]: 1/14

QPPFWRQQP (Description of Artificial Sequence: Synthetic gluten peptide) [motif of dominant glutenin 20mers, HLA DQ8]
dominance among five subjects [3]: dominant in at least one of the five subjects

GYYPTSSLQPEQGQQGYYPT (Description of Artificial Sequence: Synthetic gluten peptide) [glutenin 20mer, HLA DQ8]
dominance among five subjects [3]: dominant in at least one of the five subjects

PQPFLPQLPYPQP (Description of Artificial Sequence: Synthetic gluten peptide)
subjects in whom peptide stimulated >70% of maximal response (dominant) [4]: 1/14

SEQYQPYPEQQEPFVQ (Description of Artificial Sequence: Synthetic gluten peptide) [peptide 1490, avenin peptide reported in Arentz-Hansen, PLoS Medicine 2004, reference compound]
subjects with far weaker response ([1]; after oats challenge): 5
subjects with strong positive response ([1]; after oats challenge): one

QLRCPAIHSVVQAIIL (Description of Artificial Sequence: Synthetic gluten peptide)
subjects in whom peptide was dominant (>70% maximal response) after oats challenge ([1]; deamidated by tTG, 18 subjects): 4/18

RTTTSVPFD (Description of Artificial Sequence: Synthetic gluten peptide) [motif of dominant glutenin 20mers, HLA DQ8]
dominance among five subjects [3]: dominant in at least one of the five subjects

(QPLR)GYYPTSPQ: previously identified HLA DQ8 epitope, van der Wal 2001 [reference compound]
dominance among five subjects [3]: dominant in at least one of the five subjects

SGQGVSQSQQQSQQQ (Description of Artificial Sequence: Synthetic gluten peptide)
subjects in whom peptide stimulated >70% of maximal response (dominant) [4]: 2/14
